One data set concerns the target T1, P-glycoprotein (MDR1) (Homo sapiens, UniProt P08183).
T1 construct: host or cells: MDR1-MDCK cell monolayers
Description: MDR1-MDCK permeability and efflux. Particulars: for Papp A→B at 120 min, 5 μM / Papp B→A at 120 min, 5 μM / recovery at 120 min, 5 μM: dog, MDCK-MDR1, pH 7.4, 5 μM. The class given is in vitro ADME. The method, then:
Test Direction Recovery Papp (10-6 cm/s) Efflux Brain
Article (%) R1 R2 AVG Ratio Penetration
Supplemental Figure 4. Blood-brain barrier (BBB) penetration potential using MDR1-MDCK cell monolayers. All P-glycoprotein (MDR1) permeability and efflux studies were conducted at Absorption Systems (parent company Pharmaron). In brief, MDR1-MDCK monolayers were grown to confluence on collagen-coated, microporous membranes in 12-well assay plates. The permeability assay buffer was Hanks’ balanced salt solution containing 10 mM HEPES and 15 mM glucose at a pH of 7.4. The buffer in the receiver chamber also contained 1% bovine serum albumin. The dosing solution concentration was 5 μM of test article in the assay buffer. Cell monolayers were dosed on the apical side (A-to-B) or basolateral side (B-to-A) and incubated at 37°C with 5% CO2 in a humidified incubator. Samples were taken from the donor and receiver chambers after 120 minutes. Each determination was performed in duplicate. The flux of lucifer yellow was also measured post-experimentally for each monolayer to ensure no damage was inflicted to the cell monolayers during the flux period. All samples were assayed by LC-MS/MS using electrospray ionization. Efflux ratio (ER) is defined as Papp (B-to-A) / Papp […]

Data set [1] relates to intracranial L0 PDX tumors. Put plainly: Long-term intracranial L0 xenograft. The class given is in vivo. Particulars: 30 mg/kg once a day i.p. As for the experimental part:
Briefly, L0 cells were intracranial injected into 6–12 week old NSG mice. Once fully anesthetized, mice were secured into a stereotaxic apparatus and 20,000 L0 Cells were injected into the left hemisphere 0.5 mm rostral and 1.8 mm lateral to the b4regma with 3.5 mm depth from the scalp. […] Animals were monitored over time for the presentation of neurological and behavioral symptoms at which time the animals were humanely euthanized. Survival analysis was completed using PRISM 9.1.2 and comparison were made using Log-Rank (Mantel-Cox) test.

For the next data set, the system named is MV4:11. The note with it: read-out: MV4:11 GI50; cited from earlier work.
Another data set deals with WDR5 (Homo sapiens, UniProt P61964). Put plainly: WDR5 live cell CETSA in intact L0 CSCs (melting curve, isothermal Kd, washout). Also on record: we first used a cellular thermal shift (CETSA) assay in intact L0 CSCs; endogenous in cells; host or cells: L0 patient-derived GBM CSCs. The class given is cell-based. As for the experimental part: In total, 500,000 L0 CSCs, grown in suspension as spheroids, were split with Accutase and seeded in 1 mL of NBMc into each well of a 24-well dish. […] Cells were harvested by centrifugation (5 minutes, 500g) into SafeLock tubes (Eppendorf), washed once with 400 μL of PBS, and resuspended in 25 μL of CETSA Buffer (PBS + 1X Roche cOmplete Protease Inhibitor Cocktail + 3X Benzonase). […] One DMSO-treated sample was left unheated (representing 100% abundance i.e., fully bound) and 1 DMSO-treated sample was heated to 70°C (representing 0% abundance i.e., fully unbound). After heating, samples were lysed by 6X freeze-thaw cycles in LN2/hot water, rested for 10 minutes at room temperature, and then centrifuged for 30 minutes at > 14,000g at 4°C. 20 μL of the supernatant was transferred to a fresh tube into 5 μL of SDS-PAGE Loading Dye, boiled, and separated on 4%–20% Mini-PROTEAN Precast TGX Gels (Biorad). […] For CETSA washout experiments, a 10 cm dish with 6 × 10^6 to 8 × 10^6 L0 cells was treated for 2 hours with 5 μM compound or DMSO, washed 3 times with 15 mL of PBS (3 min, 400g), and split into 10 × 1 mL of fresh NBMc in a 24-well dish.

The test system of data set [2] is RPS24, PYGL, CKMT1, SALL2, NID2, PYGB, RPL14 transcripts. Put plainly: RT-qPCR of WDR5-target genes in patient-derived CSCs (L0, L1, L2, DI318, 3832). The class given is cell-based, human. The note with it: 72 hours. The method, then:
Cells were harvested by centrifugation (5 minutes, 500g) into 2 mL Eppendorf Tubes and total RNA was purified on spin columns using the RNeasy Plus Kit (Qiagen, includes gDNA removal columns). In total, 2.5 μg of total RNA was treated with ezDNAse (Thermo Fisher) and then reverse transcribed with the SuperScript IV VILO RT Master Mix (Invitrogen). cDNA was diluted 1:100 in nuclease-free water and then transcripts were quantified using the PowerUp SYBR Green Master Mix (Thermo Fisher) on a QuantStudio 3 qPCR machine according to the manufacturer’s recommendations. Primer sets are provided in the Supporting Information. Raw Cq values were normalized per sample to the housekeeper ACTB and then the fold-change relative to DMSO treated cells was calculated as FC = 2^–ΔΔCq.
In general terms: In qPCR the cycle at which signal appears reflects the starting amount.

For a further data set, the system named is L0 CSCs. Put plainly: Extreme limiting dilution assay (ELDA) in L0. Particulars: 14 days. The class given is cell-based, human. The method, then:
(§1) L0 and DI318 CSCs were split with Accutase as single cells into NBMc. In total, 200 μL of CSCs were seeded into each well of a 96-well TC treated plate (n = 10 well per density) at 50, 25, 13, 6, 3, and 1.5 cells/well. […] The stem cell frequency was quantified and treatments were compared with DMSO as described by Hu and Smyth ([98]).

Another data set concerns DI318 CSCs. Description: Extreme limiting dilution assay (ELDA) in DI318. The class given is cell-based, human. Particulars: 14 days. As for the experimental part:
as §1

Data set [3] has as its system DI318 flank PDX tumors. Put plainly: DI318 flank xenograft, tumor volume. Particulars: 30 mg/kg once a day i.p. over 7 days. The class given is in vivo, NSG mice.
Description: (A) NOD-scid (NSG) mice were inoculated subcutaneously in the right flank with 2 × 10⁶ DI318 CSCs suspended in 100 μL of PBS:Matrigel (1:1). Over the next 6-7 days tumors developed to the point where a small mass was visual. A digital caliper measurement (length and width) were taken to get a baseline tumor size. Mice
Compounds were formulated in 20% HP β-cyclodextrin (BCD) and administered once daily via IP injection at 30 mg/kg for 7 consecutive days.
Endpoint ellipsoid tumor volume was calculated and compared using a t-test.
The test system of data set [4] is DI318 flank PDX tumors. Description: ELDA of cells dissociated from DI318 flank tumors. The class given is in vivo, NSG mice. Particulars: 30 mg/kg once a day i.p. over 7 days. The method, then:
as §1
(1 picture or pasted object on this page, not shown here)

The test system of a further data set is WDR5-target genes. Description: RT-qPCR of WDR5-target genes in frozen DI318 flank tumor samples. The class given is in vivo, NSG mice. The note with it: 30 mg/kg once a day i.p. over 7 days.

Where two headings read alike, the source gives them in different places.

T1 sequence (P08183 whole entry): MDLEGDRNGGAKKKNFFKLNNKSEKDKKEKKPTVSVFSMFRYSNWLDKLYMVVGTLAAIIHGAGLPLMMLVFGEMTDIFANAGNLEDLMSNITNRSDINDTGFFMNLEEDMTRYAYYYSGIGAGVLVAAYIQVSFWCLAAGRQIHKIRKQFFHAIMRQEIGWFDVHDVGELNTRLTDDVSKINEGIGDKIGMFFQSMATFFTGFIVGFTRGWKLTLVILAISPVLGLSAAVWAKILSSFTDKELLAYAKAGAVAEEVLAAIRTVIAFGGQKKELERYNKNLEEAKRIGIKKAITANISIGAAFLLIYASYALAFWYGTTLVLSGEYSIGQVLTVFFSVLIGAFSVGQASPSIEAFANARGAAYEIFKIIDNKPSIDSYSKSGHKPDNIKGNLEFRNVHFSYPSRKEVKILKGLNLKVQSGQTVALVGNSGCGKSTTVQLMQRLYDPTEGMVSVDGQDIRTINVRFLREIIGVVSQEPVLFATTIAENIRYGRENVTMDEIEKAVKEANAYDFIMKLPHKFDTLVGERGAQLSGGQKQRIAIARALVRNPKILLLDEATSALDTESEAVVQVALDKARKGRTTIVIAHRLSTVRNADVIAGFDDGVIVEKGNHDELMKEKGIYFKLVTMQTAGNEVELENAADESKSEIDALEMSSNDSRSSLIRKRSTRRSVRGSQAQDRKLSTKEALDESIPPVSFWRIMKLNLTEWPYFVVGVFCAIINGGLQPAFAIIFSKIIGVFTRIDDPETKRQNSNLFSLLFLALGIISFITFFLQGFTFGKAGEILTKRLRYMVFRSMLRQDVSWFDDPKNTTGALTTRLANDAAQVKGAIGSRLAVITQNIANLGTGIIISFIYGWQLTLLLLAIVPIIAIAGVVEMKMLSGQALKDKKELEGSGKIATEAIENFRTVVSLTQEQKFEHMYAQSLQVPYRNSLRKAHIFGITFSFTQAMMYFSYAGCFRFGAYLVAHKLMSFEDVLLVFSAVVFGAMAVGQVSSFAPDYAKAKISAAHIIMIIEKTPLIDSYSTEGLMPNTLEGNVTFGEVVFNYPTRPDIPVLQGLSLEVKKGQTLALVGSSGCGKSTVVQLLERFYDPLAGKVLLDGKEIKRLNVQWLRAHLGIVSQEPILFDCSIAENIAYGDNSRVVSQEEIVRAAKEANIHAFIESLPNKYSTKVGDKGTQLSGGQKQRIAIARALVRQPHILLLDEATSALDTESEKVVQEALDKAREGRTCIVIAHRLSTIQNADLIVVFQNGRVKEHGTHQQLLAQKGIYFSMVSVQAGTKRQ

A word on the Papp A→B: it is how fast a substance crosses the layer from the apical side. What is called Papp B→A is how fast a substance crosses the layer from the basolateral side. Consider `COc1cc(Cn2nnc3c2CCc2c-3cc(Cn3ccnc3C)cc2C2CC2)ccc1F` [C3TD343], for which, on P-glycoprotein (MDR1), the “Brain Penetration Classification” value was “Low”. The “efflux by P-glycoprotein” value at P-glycoprotein (MDR1) (MDR1-MDCK permeability studies) was “strongly effluxed”. Moreover, the Papp A→B at 120 min, 5 μM on P-glycoprotein (MDR1) (read-out: Papp A-to-B, AVG) was found to be 0.113 ×10⁻⁶ cm/s; at P-glycoprotein (MDR1) (read-out: Papp A-to-B, R1), 0.131 ×10⁻⁶ cm/s; at P-glycoprotein (MDR1) (read-out: Papp A-to-B, R2) it was 0.0949 ×10⁻⁶ cm/s. Also, the Papp B→A at 120 min, 5 μM at P-glycoprotein (MDR1) (read-out: Papp B-to-A, AVG) was 43.3 ×10⁻⁶ cm/s; at P-glycoprotein (MDR1) (read-out: Papp B-to-A, R1), 40.2 ×10⁻⁶ cm/s; on P-glycoprotein (MDR1) (read-out: Papp B-to-A, R2), 46.3 ×10⁻⁶ cm/s. The recovery at 120 min, 5 μM on P-glycoprotein (MDR1) (read-out: Recovery, A-to-B) came out at 71.2%; at P-glycoprotein (MDR1) (read-out: Recovery, B-to-A), 76.8%. Moreover, in data set [1], the effect on survival result is listed as “no effect on survival”. The tolerability result in [1] (up to 71 days) is “well tolerated”. In [1] (vehicle 72 days), the “survival in L0 Intracranial Xenograft (Kaplan-Meier)” value came to 71 days.

The GI50 is the concentration that inhibits growth by half. Usually ΔTm stands for the change in melting temperature against a reference sample. Turning to `COc1cc(CN2CCc3c(cc(Cn4ccn(C)c4=N)cc3-c3ccc(F)cc3C)C2=O)cc(OC)c1` [C16, reference compound], the “Brain Penetration Classification” value on P-glycoprotein (MDR1) was “Low”. Further, the Papp A→B at 120 min, 5 μM at P-glycoprotein (MDR1) (read-out: Papp A-to-B, AVG) was found to be 0.715 ×10⁻⁶ cm/s; at P-glycoprotein (MDR1) (read-out: Papp A-to-B, R1) it was 0.556 ×10⁻⁶ cm/s; at P-glycoprotein (MDR1) (read-out: Papp A-to-B, R2), 0.875 ×10⁻⁶ cm/s. Besides, the Papp B→A at 120 min, 5 μM is 1.7 ×10⁻⁶ cm/s at P-glycoprotein (MDR1) (read-out: Papp B-to-A, AVG); 1.49 ×10⁻⁶ cm/s at P-glycoprotein (MDR1) (read-out: Papp B-to-A, R1); 1.91 ×10⁻⁶ cm/s at P-glycoprotein (MDR1) (read-out: Papp B-to-A, R2). The recovery at 120 min, 5 μM at P-glycoprotein (MDR1) (read-out: Recovery, A-to-B) is 85.6%; at P-glycoprotein (MDR1) (read-out: Recovery, B-to-A), 87.3%. For the same compound, the GI50 in the data set with MV4:11 is 38 nM. In addition, the ΔTm at 10 µM at WDR5 (L0 cells, 10 μM, 2 hours) was found to be 35 °C.

For orientation: IC50 means the concentration needed to halve the response being measured. What is called Kd is the concentration at which binding is half-saturated. Consider `COc1cc(Cn2nnc3c2CCc2c(-c4cn(C)nc4C(F)(F)F)cc(Cn4ccnc4C)cc2-3)cc(OC)c1` [C3TD078], for which the IC50 in data set [2] (Homo sapiens, L0 and DI318, 5 genes, read-out: average IC50 of transcriptional downregulation (qPCR)) is 80 nM. The “PYGB expression log2FC” value in data set [2] (L0, L2, DI318, 3832, 200 nM) is < 1.0. In addition, in data set [2] (all 5 CSC models, 200 nM), the “PYGL and CKMT1 downregulation” value is ~ 4 fold. In addition, in data set [2] (all 5 CSC models, 200 nM), the RPL14 expression result is “unaffected”. The RPS24 downregulation in data set [2] (all 5 CSC models, 200 nM) is ~ 2 fold. In addition, the entries for the “L0 ELDA stem cell frequency (1 in N)” value with L0 CSCs (20 nM), in the data set with L0 CSCs (200 nM) and in the data set with L0 CSCs (2000 nM) were 1.3, 2.2 and 2.1, respectively. Further, the “DI318 ELDA stem cell frequency (1 in N)” value in the data set on DI318 CSCs (20 nM) was found to be 1.6; in the data set on DI318 CSCs (200 nM), 2.1; in the data set on DI318 CSCs (2000 nM), 2.2. In the data set on DI318 flank PDX tumors [3], the “effect on tumor growth” value was “did not reduce tumor growth”. Further, the “effect on stem cell frequency of treated tumors” value in the data set on DI318 flank PDX tumors [4] was “did not reduce tumor growth or affect stem cell frequency”. Moreover, the “downregulation of WDR5-target genes in treated tumors” value with WDR5-target genes is recorded as “did not downregulate WDR5-target genes in treated tumors”. In addition, the “time remaining bound to WDR5 after washout” value at WDR5 (L0 CSCs, 5 μM for 2 hours, then washout) was “at least 21 hours”. The dissociation constant (Kd) at WDR5 (L0 CSCs, 2-hour pretreatment, isothermal 70°C) was found to be 2 nM.

Source of the values: article PMC13313556, “Development and characterization of triazole-based WDR5 inhibitors for the treatment of glioblastoma” (JCI Insight, 2026).
